Laboratory results published in PubChem BioAssay (NCI).
Values joined by “and” are separate entries in the source; they are usually repeats but may differ in a detail not shown here. Equal entries are not always repeated.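 Five concentrations, 48 hours, 96-well plates. GI50: concentration for 50% inhibition of growth. Definition used: TGI = concentration required for complete inhibition of growth.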

Experiments:
Test in all cases: NCI-60 cell line screen, 48 h
CAKI-1 renal = test system: CAKI-1 renal
HCT-15 colon = test system: HCT-15 colon
HS 578T breast = test system: HS 578T breast
MOLT-4 leukemia = test system: MOLT-4 leukemia
NCI-H226 lung = test system: NCI-H226 lung
SF-539 CNS = test system: SF-539 CNS
SK-MEL-5 melanoma = test system: SK-MEL-5 melanoma
A498 renal = test system: A498 renal
MALME-3M melanoma = test system: MALME-3M melanoma
SR leukemia = test system: SR leukemia

Cc1ccc2c(Nc3cccc(Cl)c3F)ncc(NC(=O)c3csc4c(N)ncnc34)c2c1
GI50 (CAKI-1 renal): 0.734 µM
TGI (CAKI-1 renal): > 100 µM
GI50 (HCT-15 colon): > 100 µM
TGI (HCT-15 colon): > 100 µM
GI50 (HS 578T breast): > 100 µM
TGI (HS 578T breast): > 100 µM
GI50 (MOLT-4 leukemia): > 100 µM
TGI (MOLT-4 leukemia): > 100 µM
GI50 (NCI-H226 lung): > 100 µM
TGI (NCI-H226 lung): > 100 µM
GI50 (SF-539 CNS): > 100 µM
TGI (SF-539 CNS): > 100 µM
GI50 (SK-MEL-5 melanoma): > 100 µM
TGI (SK-MEL-5 melanoma): > 100 µM

CCC[CH2][Ge]([CH2]CCC)([CH2]CCC)[O]C(=O)C(O)c1ccccc1 (stereo not given)
GI50 (A498 renal): 11.7 µM
TGI (A498 renal): 26.8 µM
GI50 (CAKI-1 renal): 5.9 µM
TGI (CAKI-1 renal): 24.1 µM
GI50 (HCT-15 colon): 1.78 µM
TGI (HCT-15 colon): 14.2 µM
GI50 (MALME-3M melanoma): 1.45 µM
TGI (MALME-3M melanoma): 18 µM
GI50 (MOLT-4 leukemia): 0.602 µM
TGI (MOLT-4 leukemia): > 39.4 µM
GI50 (NCI-H226 lung): 1.2 µM
TGI (NCI-H226 lung): 27.9 µM
GI50 (SF-539 CNS): 9.64 µM
TGI (SF-539 CNS): 22.1 µM
GI50 (SK-MEL-5 melanoma): 1.46 µM
TGI (SK-MEL-5 melanoma): 13.2 µM

CC(=O)Nc1ccccc1-c1cnc2ccccc2n1
TGI (A498 renal): > 100 µM
TGI (CAKI-1 renal): > 100 µM
TGI (HCT-15 colon): > 100 µM
TGI (MALME-3M melanoma): > 100 µM
TGI (MOLT-4 leukemia): > 100 µM
TGI (NCI-H226 lung): > 100 µM
TGI (SF-539 CNS): > 100 µM
TGI (SK-MEL-5 melanoma): > 100 µM
TGI (SR leukemia): > 100 µM

O=C(/C=C/c1ccccc1O)c1cccnc1
TGI (A498 renal): > 100 µM
TGI (CAKI-1 renal): > 100 µM
TGI (MALME-3M melanoma): > 100 µM
TGI (MOLT-4 leukemia): > 100 µM
TGI (NCI-H226 lung): > 100 µM
TGI (SF-539 CNS): > 100 µM
TGI (SK-MEL-5 melanoma): > 100 µM
TGI (SR leukemia): > 100 µM

COc1cc2ccnc(-c3c4ccccc4c(N)c4c(OC)c(OC)ccc34)c2cc1OC
TGI (A498 renal): 8.89 µM
TGI (CAKI-1 renal): 8.72 µM
TGI (MALME-3M melanoma): 11.5 µM
TGI (MOLT-4 leukemia): 9.53 µM
TGI (NCI-H226 lung): 5.66 µM
TGI (SF-539 CNS): 4.6 µM
TGI (SK-MEL-5 melanoma): 12.3 µM
TGI (SR leukemia): 6.19 µM

ICCC(c1ccccc1)(c1ccccc1)c1ccccc1
GI50 (CAKI-1 renal): 3.83 µM
TGI (CAKI-1 renal): 17.1 µM
GI50 (HCT-15 colon): 3.56 µM
TGI (HCT-15 colon): 15.5 µM
GI50 (MALME-3M melanoma): 1.9 µM
TGI (MALME-3M melanoma): 3.6 µM
GI50 (MOLT-4 leukemia): 2.57 µM
TGI (MOLT-4 leukemia): 8.97 µM
GI50 (NCI-H226 lung): 13.7 µM
TGI (NCI-H226 lung): 27.3 µM
GI50 (SF-539 CNS): 3.61 µM
TGI (SF-539 CNS): 16.1 µM
GI50 (SK-MEL-5 melanoma): 3.23 µM
TGI (SK-MEL-5 melanoma): 11.2 µM
GI50 (SR leukemia): 1.93 µM
TGI (SR leukemia): 5 µM

C[C@]12CCC3c4ccc(O)cc4CCC3C1Cc1ccc(O)cc12 (stereo not given in full)
GI50 (A498 renal): 6.18 µM
TGI (A498 renal): 19.7 µM
GI50 (CAKI-1 renal): 10.8 µM
TGI (CAKI-1 renal): 45.6 µM
GI50 (HCT-15 colon): 4.51 µM
TGI (HCT-15 colon): 19 µM
GI50 (HS 578T breast): 5.87 µM
TGI (HS 578T breast): 42.6 µM
GI50 (MALME-3M melanoma): 10.8 µM
TGI (MALME-3M melanoma): 29.1 µM
TGI (MOLT-4 leukemia): 0.478 µM
GI50 (NCI-H226 lung): 19 µM
TGI (NCI-H226 lung): 36.6 µM
GI50 (SF-539 CNS): 6.08 µM
TGI (SF-539 CNS): 20.8 µM
GI50 (SK-MEL-5 melanoma): 4.85 µM
TGI (SK-MEL-5 melanoma): 16.8 µM

COc1cc2c(c(OC)c1OC)-c1ccc(SC)c(=O)cc1[C@@H](NCc1cccc(C#N)c1)CC2
TGI (A498 renal): 0.0732 µM
TGI (CAKI-1 renal): > 75 µM
GI50 (HCT-15 colon): < 0.0075 µM
GI50 (MALME-3M melanoma): < 0.0075 µM
TGI (MALME-3M melanoma): > 75 µM
GI50 (MOLT-4 leukemia): < 0.0075 µM
TGI (MOLT-4 leukemia): 69.2 µM
GI50 (NCI-H226 lung): < 0.0075 µM
TGI (NCI-H226 lung): 0.0545 µM and < 0.0075 µM
GI50 (SF-539 CNS): < 0.0075 µM
TGI (SF-539 CNS): 0.0354 µM and < 0.0075 µM
TGI (SK-MEL-5 melanoma): 0.0641 µM
TGI (SR leukemia): 12.2 µM

CC(=O)OCC1OC(n2c(=O)n(-c3ccccc3)c(=O)c3cc(Br)cc(Br)c32)C(OC(C)=O)C(OC(C)=O)C1OC(C)=O (stereo not given)
TGI (A498 renal): > 100 µM
TGI (CAKI-1 renal): > 100 µM
TGI (HCT-15 colon): > 100 µM
TGI (MALME-3M melanoma): > 100 µM
TGI (MOLT-4 leukemia): > 100 µM
TGI (NCI-H226 lung): > 100 µM
TGI (SF-539 CNS): > 100 µM
TGI (SK-MEL-5 melanoma): > 100 µM

CO[C@H]1C[C@@H]2CC[C@@H](C)[C@@](O)(O2)C(=O)C(=O)N2CCCC[C@H]2C(=O)O[C@H]([C@H](C)C[C@@H]2CC[C@@H](OP(C)(C)=O)[C@H](OC)C2)CC(=O)[C@H](C)/C=C(\C)[C@@H](O)[C@@H](OC)C(=O)[C@H](C)C[C@H](C)/C=C/C=C/C=C/1C
GI50 (A498 renal): < 0.01 µM
TGI (A498 renal): 15.5 µM
GI50 (CAKI-1 renal): 10.8 µM
TGI (CAKI-1 renal): 25.9 µM
GI50 (HCT-15 colon): 1.21 µM
TGI (HCT-15 colon): 29.5 µM
TGI (HS 578T breast): 37.1 µM
GI50 (MALME-3M melanoma): < 0.01 µM
TGI (MALME-3M melanoma): 16.8 µM
GI50 (MOLT-4 leukemia): 2.96 µM
TGI (MOLT-4 leukemia): 37.1 µM
GI50 (NCI-H226 lung): 1.71 µM
TGI (NCI-H226 lung): 24.2 µM
GI50 (SF-539 CNS): < 0.0234 µM
TGI (SF-539 CNS): 21.7 µM
TGI (SK-MEL-5 melanoma): 18.4 µM

Cc1nc(-c2nc(C)c(C(=O)NN(C)C)s2)sc1C(=O)NN(C)C
TGI (A498 renal): > 100 µM
TGI (CAKI-1 renal): > 100 µM
TGI (HCT-15 colon): > 100 µM
TGI (MALME-3M melanoma): > 100 µM
TGI (MOLT-4 leukemia): > 100 µM
TGI (NCI-H226 lung): > 100 µM
TGI (SF-539 CNS): > 100 µM
TGI (SK-MEL-5 melanoma): > 100 µM
TGI (SR leukemia): 40.7 µM

CC[C@H](C)[C@H](NC(=O)Nc1ccccc1)C(=O)N(C)[C@H](C[C@@H](OC(C)=O)c1nc(C(=O)N[C@@H](Cc2ccccc2)C[C@H](C)C(=O)OC)cs1)C(C)C
GI50 (CAKI-1 renal): 9.01 µM
TGI (CAKI-1 renal): > 100 µM
GI50 (HCT-15 colon): 3.58 µM
TGI (HCT-15 colon): > 100 µM
GI50 (HS 578T breast): 2.47 µM
TGI (HS 578T breast): 8.73 µM
GI50 (MALME-3M melanoma): 98.2 µM
TGI (MALME-3M melanoma): > 100 µM
GI50 (NCI-H226 lung): 8.83 µM
TGI (NCI-H226 lung): > 100 µM
GI50 (SF-539 CNS): 2.37 µM
TGI (SF-539 CNS): 6.85 µM
GI50 (SK-MEL-5 melanoma): 1.73 µM
TGI (SK-MEL-5 melanoma): 12.4 µM

Cc1ccccc1-c1c(N)nc(N)nc1C(=O)Nc1nccs1
TGI (A498 renal): > 100 µM
TGI (CAKI-1 renal): > 100 µM
TGI (HCT-15 colon): > 100 µM
TGI (MALME-3M melanoma): > 100 µM
TGI (MOLT-4 leukemia): > 100 µM
TGI (NCI-H226 lung): > 100 µM
TGI (SF-539 CNS): > 100 µM
TGI (SK-MEL-5 melanoma): > 100 µM
TGI (SR leukemia): > 100 µM

CCC1(C(=O)OC)CCc2c(OC)ccc(OC)c2C1=O (stereo not given)
TGI (A498 renal): > 100 µM
TGI (CAKI-1 renal): > 100 µM
TGI (HCT-15 colon): > 100 µM
TGI (MALME-3M melanoma): > 100 µM
TGI (MOLT-4 leukemia): > 100 µM
TGI (SF-539 CNS): > 100 µM
TGI (SK-MEL-5 melanoma): > 100 µM

CC(=O)C1C(=O)C(=O)N(c2ccccc2N2C(=O)C(=O)C(C(C)=O)C2=O)C1=O (stereo not given)
TGI (A498 renal): > 100 µM
TGI (CAKI-1 renal): > 100 µM
TGI (HCT-15 colon): > 100 µM
TGI (MALME-3M melanoma): > 100 µM
TGI (MOLT-4 leukemia): > 100 µM
TGI (NCI-H226 lung): > 100 µM
TGI (SF-539 CNS): > 100 µM
TGI (SK-MEL-5 melanoma): > 100 µM
TGI (SR leukemia): > 100 µM

Nc1ncnc2c(C3OC(CO)C(O)C3O)scc12 (stereo not given)
GI50 (A498 renal): 0.0518 µM
TGI (A498 renal): 0.324 µM and 2.03 µM
TGI (HCT-15 colon): 0.584 µM and 0.14 µM
GI50 (MALME-3M melanoma): 4.35 µM
TGI (MALME-3M melanoma): 24.4 µM
GI50 (MOLT-4 leukemia): 0.0989 µM
TGI (MOLT-4 leukemia): 1.99 µM and 1.9 µM
TGI (NCI-H226 lung): 0.731 µM
GI50 (SK-MEL-5 melanoma): 0.0781 µM
TGI (SK-MEL-5 melanoma): 4.68 µM and 2.64 µM
GI50 (SR leukemia): 0.0621 µM
TGI (SR leukemia): 2.49 µM

O=C(CC(=O)Nc1ccccc1O)Nc1ccccc1O
TGI (A498 renal): > 100 µM
TGI (CAKI-1 renal): > 100 µM
TGI (HCT-15 colon): 21.8 µM
TGI (MALME-3M melanoma): 37.7 µM
TGI (MOLT-4 leukemia): > 100 µM
TGI (NCI-H226 lung): > 100 µM
TGI (SF-539 CNS): 35.1 µM
TGI (SK-MEL-5 melanoma): 22 µM

COc1cc(/C=C/c2ccc(OC(C)=O)cc2)cc(OC)c1OC
TGI (A498 renal): 71.8 µM
TGI (CAKI-1 renal): > 100 µM
TGI (HCT-15 colon): > 100 µM
TGI (MALME-3M melanoma): 97.1 µM
TGI (MOLT-4 leukemia): 75.7 µM
TGI (NCI-H226 lung): > 100 µM
TGI (SF-539 CNS): 60.8 µM
TGI (SK-MEL-5 melanoma): 34.6 µM

CC(=O)OC1C/C(C)=C/CCC(C)/C=C/C2(C)CCC(C(C)(C)O)C12 (stereo not given)
TGI (A498 renal): > 100 µM
TGI (CAKI-1 renal): > 100 µM
TGI (HCT-15 colon): > 100 µM
TGI (MALME-3M melanoma): > 100 µM
TGI (MOLT-4 leukemia): > 100 µM
TGI (NCI-H226 lung): > 100 µM
TGI (SF-539 CNS): > 100 µM
TGI (SK-MEL-5 melanoma): > 100 µM
TGI (SR leukemia): 47.2 µM
